Source: patent publication US20220372013A2, “PIPERIDINE-2,6-DIONE DERIVATIVES AND CROHN'S DISEASE TREATING” (Tianjin Hemay Pharmaceutical Sci-Tech Co., Ltd, priority 2016, published 2022)
Like-named read-outs stand apart in the source and are kept apart here. Marks after values point to notes of the source that are not given here.

Experiments:
mice = assay: Biological Example 5: acute toxicity experiment of single oral administration in mice; format: in vivo; conditions: single oral 1000 mg/Kg, Mean ± SD
Experimental: The mice were fasted one day before the experiment. On the day of the experiment, 6 mice (ICR mice, body weight of 19-21 g, three females and three males) were selected in each experiment group. First of all, one female and one male were selected to orally give 1000 mg/Kg, and observed for 5-10 minutes. If there were no obvious side effects, the remaining 4 animals were orally given the same dose, and observed for 10-15 minutes. If no animal died, the animals were placed in a box to balancedly feed for 7 days. The state was observed and the body weight was recorded daily.
Observation Indexes within 0-15 Minutes after Administration
Activity: restlessness, hyperactivity
Nervous system response: tremor, spasm, convulsion, ataxia, posture abnormality, etc.
Autonomic nerve: exophthalmos, salivation, tears, urination (hematuria), diarrhea, piloerection, breathing, etc.
State of Animal: lethargy, hyperactivity, excitement, hair loss, diarrhea, abnormal behavior, death, etc.

[1] = tested on: DNBS-Induced Inflammatory Bowel Disease Models in Rats; assay: Biological Example 4: DNBS-induced inflammatory bowel disease models in rats; format: in vivo, Wistar rats; conditions: 30 mg/Kg i.g. qd × 7; for Adhesion Degree of Colon / Colon weight to length ratio / Ulcer area of colon / inhibition in vivo at 30 mg/kg: day 7; for Body weight: Mean ± SD; for inhibition in vivo at 30 mg/kg: Rattus norvegicus, po, 168 h
Experimental: 102 male Wistar rats were fasted for 72 hours. A 5% glucose injection was administered subcutaneously twice during fasting. 88 rats with normal conditions and moderate body weight were selected from the fasting rats. The animals were randomly divided into 11 groups according to the body weight (see Table 11. Grouped Table).
The animals were anesthetized with ether after 72 hours fasting. A specially made gavage device was slowly inserted into the enteric cavity at 8 cm from the anus. The model control group and each test group were administered with 0.5 mL of 50 mg/mL DNBS in 30% ethanol solution. The normal control group was administered with 0.5 mL of 30% ethanol solution. The animals were inverted in anesthesia for 15 minutes. The day when the model was prepared was day 0 of the experiment. After 4 hours of DNBS induction, the corresponding drug or the corresponding volume of 1% CMC-Na was administered once per day. On day 7 of the experiment, the animals were euthanized to score the colon adhesion degree, measure the length of colon and ulcer area, weigh colon and calculate the colon weight to length ratio.
One-way ANOVA analysis of the length of colon and colon weight per length of rats was performed by SPSS22. Statistical analyses between groups were performed. The adhesion degree was scored. Mann-Whitney U non-parametric test was performed on ulcer area. Statistical analyses between groups were performed.
Calculation Formula of Inhibitory rate of weight increase per length: (Colon weight to length ratio in model group−Colon weight to length ratio in administration group)/(Colon weight to length ratio in model group−Colon weight to length ratio in blank group)

[2] = read-out: Inhibitory rate of colon adhesion
[3] = read-out: Inhibitory rate of ulcer area of colon
[4] = read-out: Inhibitory rate of weight increase per length

Row | Structure (SMILES) | Daily Body Weight (mice; Female mice, Day 1) | Daily Body Weight (mice; Female mice, Day 2) | Daily Body Weight (mice; Female mice, Day 3) | Daily Body Weight (mice; Female mice, Day 4) | Daily Body Weight (mice; Female mice, Day 5) | Daily Body Weight (mice; Female mice, Day 6) | Daily Body Weight (mice; Female mice, Day 7) | Daily Body Weight (mice; Male mice, Day 1) | Daily Body Weight (mice; Male mice, Day 2) | Daily Body Weight (mice; Male mice, Day 3) | Daily Body Weight (mice; Male mice, Day 4) | Daily Body Weight (mice; Male mice, Day 5) | Daily Body Weight (mice; Male mice, Day 6) | Daily Body Weight (mice; Male mice, Day 7) | Adhesion Degree of Colon [1] | Colon weight to length ratio [1] | Ulcer area of colon [1] | Body weight ([1]; Day 1) | Body weight ([1]; Day 2) | Body weight ([1]; Day 3) | other results
1 | COCCN1C(=O)CCC(N2C(=O)c3c(N)ccc(O)c3C2=O)C1=O (stereo not drawn) [Example 10, 4-amino-7-hydroxy-2-(1-(2-methoxyethyl)-2,6-dioxopiperidin-3-yl)isoindolin-1,3-dione] | 19.2 ± 0.5 g | 21.9 ± 0.4 g | 22.4 ± 0.2 g | 22.4 ± 0.2 g | 22.9 ± 0.6 g | 24.1 ± 1.5 g | 24.2 ± 1.8 g | 19.4 ± 0.3 g | 24.4 ± 0.6 g | 25.5 ± 0.9 g | 25.5 ± 0.9 g | 26.8 ± 0.9 g | 29.2 ± 0.7 g | 30.3 ± 0.7 g | 0.5 ± 0.5 point | 93 ± 12 mg/cm | 0.2 ± 0.5# cm^2 | 122.4 ± 6.7 g | 122.1 ± 8.0 g | 126.6 ± 9.8 g | Body weight ([1]; Day 4): 136.9 ± 12.5 g; Body weight ([1]; Day 5): 143.7 ± 18.2 g; Body weight ([1]; Day 6): 144.9 ± 19.7 g; Body weight ([1]; Day 7): 160.8 ± 25.7 g; inhibition in vivo at 30 mg/kg [1, 2]: 81.1%; inhibition in vivo at 30 mg/kg [1, 3]: 91.7%; inhibition in vivo at 30 mg/kg [1, 4]: 81.2%
2 | C[S+]([O-])CCN1C(=O)CCC(N2C(=O)c3cccc(N)c3C2=O)C1=O (stereo not drawn) [Example 12, 4-amino-2-(1-(2-methylsulfinylethyl)-2,6-dioxopiperidin-3-yl)isoindolin-1,3-dione] | 18.7 ± 0.7 g | 21.8 ± 0.6 g | 22.6 ± 0.1 g | 22.6 ± 0.0 g | 23.7 ± 0.6 g | 25.3 ± 1.0 g | 25.7 ± 1.6 g | 18.5 ± 0.2 g | 24.3 ± 0.6 g | 24.9 ± 0.1 g | 24.9 ± 0.1 g | 26.1 ± 0.7 g | 27.8 ± 0.7 g | 28.5 ± 0.7 g | 0.8 ± 0.7 point | 92 ± 16 mg/cm | 0.4 ± 0.9 cm^2 | 129.1 ± 5.1 g | 128.7 ± 6.6 g | 133.9 ± 9.8 g | Body weight ([1]; Day 4): 141.8 ± 12.0 g; Body weight ([1]; Day 5): 149.2 ± 11.0 g; Body weight ([1]; Day 6): 149.5 ± 11.2 g; Body weight ([1]; Day 7): 167.3 ± 11.3 g; inhibition in vivo at 30 mg/kg [1, 2]: 62.2%; inhibition in vivo at 30 mg/kg [1, 3]: 83.3%; inhibition in vivo at 30 mg/kg [1, 4]: 82.4%
